13 compounds from ChEMBL document CHEMBL1201862, “PubChem BioAssay data set” (2004) can be followed below.

Each structure is given as a SMILES string.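 Step 1: Grow cells in 96-well plates. Step 2: Expose to compound for 48 hours at 5 concentrations. Step 3: Interpolate endpoints linearly; if unreached, use highest concentration. Here, GI50 denotes the concentration required for 50% inhibition of growth.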 Calls of active or inactive are those of the source. Cut-off read from the data, not from the text of the source: active = GI50 up to about 1.1 µM and inactive = higher.

Some test systems named below: HT-29; HL-60; OVCAR-4; OVCAR-5; HCT-15; SNB-75; TK-10; SK-MEL-28; RXF 393; MOLT-4; SN12C; HOP-92; SR; DLD-1; RPMI-8226; K562; A549; NCI/ADR-RES.
Common to all, as to test: NCI anticancer screen, dose series, 48 h

As to `O=C(O)/C=C/c1ccncc1`, the GI50 in the experiment on HT-29 is > 100 µM (inactive); in the experiment with HL-60, > 100 µM (inactive); with OVCAR-4, > 100 µM (inactive); in the experiment with OVCAR-5, > 100 µM (inactive); in the experiment on HCT-15 it was 14.5 µM; in the experiment on SNB-75, > 100 µM (inactive). Besides, the GI50 with TK-10, in the experiment on SK-MEL-28, in the experiment on RXF 393, in the experiment on MOLT-4, in the experiment on SN12C and in the experiment with HOP-92 was > 100 µM (inactive) each time. Besides, the GI50 in the experiment on SR, with DLD-1, in the experiment with RPMI-8226 and in the experiment on K562 was > 100 µM (inactive) in each case.
Regarding `O=C(O)COc1ccccc1C(=O)Nc1ccccc1`, the GI50 in the experiment with HT-29 was > 100 µM (inactive); in the experiment on HL-60, > 100 µM (inactive); in the experiment on OVCAR-4, > 100 µM (inactive); in the experiment with A549 it was > 100 µM (inactive); in the experiment on OVCAR-5, > 100 µM (inactive); with HCT-15, above 100 µM. Besides, the GI50 in the experiment with SNB-75 is 77.8 µM (inactive); with TK-10, > 100 µM (inactive); in the experiment with SK-MEL-28 it was > 100 µM (inactive); in the experiment with MOLT-4, > 100 µM (inactive); in the experiment on SN12C it was > 100 µM (inactive); in the experiment with HOP-92, > 100 µM (inactive). Also, the GI50 in the experiment on SR, with DLD-1, in the experiment with RPMI-8226 and with K562 was > 100 µM (inactive) in each case.
As to `COC(=O)/C(=N/O)C(C(=O)OC)C(=O)C(=O)Nc1c(Cl)cc(C)cc1S(=O)(=O)O` (stereo not drawn), the GI50 with HT-29 is > 100 µM (inactive); in the experiment on HL-60, > 100 µM (inactive); in the experiment with OVCAR-4 it was > 100 µM (inactive); in the experiment with A549, > 100 µM (inactive); in the experiment on OVCAR-5, > 100 µM (inactive); with HCT-15, above 100 µM. Besides, the GI50 in the experiment on SNB-75, in the experiment with TK-10, in the experiment with SK-MEL-28, in the experiment with RXF 393, in the experiment with MOLT-4 and in the experiment with SN12C was > 100 µM (inactive) in each case. Moreover, the GI50 in the experiment on HOP-92 is > 100 µM (inactive); with SR, 20.1 µM (inactive); in the experiment on DLD-1, > 100 µM (inactive); with RPMI-8226, 23.5 µM (inactive); in the experiment on K562 it was 67 µM (inactive).
`O=C(CC(=O)n1nc(-c2ccccc2)c(/N=N/c2ccc(Cl)cc2)c1-c1ccccc1)Nc1ccc(Cl)cc1`: the GI50 with HT-29 is > 43.3 µM (inactive); in the experiment with HL-60 it was > 100 µM (inactive); in the experiment on OVCAR-4 it was > 100 µM (inactive); with A549, > 43.9 µM (inactive); with OVCAR-5 it was > 100 µM (inactive); in the experiment on HCT-15, above 41.7 µM. The GI50 in the experiment with SNB-75 is > 50.5 µM (inactive); in the experiment on TK-10, > 61.1 µM (inactive); with SK-MEL-28, > 100 µM (inactive); in the experiment on MOLT-4 it was > 100 µM (inactive); with SN12C, > 100 µM (inactive); with HOP-92, > 91 µM (inactive). Further, the GI50 in the experiment with SR was > 100 µM (inactive); in the experiment on DLD-1, 18.6 µM (inactive); in the experiment on RPMI-8226 it was > 46.3 µM (inactive); with K562 it was > 41.7 µM (inactive).
Turning to `COC(=O)C1CCC[C@H]2C(CO)=C(C)C(=O)[C@@H]12` (stereo partly drawn), the GI50 in the experiment with HT-29 is > 100 µM (inactive); in the experiment on HL-60, > 100 µM (inactive); in the experiment with OVCAR-4, > 100 µM (inactive); with A549, > 100 µM (inactive); in the experiment on OVCAR-5 it was > 100 µM (inactive); with HCT-15 it was above 100 µM. Further, the GI50 in the experiment on SNB-75, in the experiment with TK-10, in the experiment with SK-MEL-28, in the experiment with RXF 393, in the experiment on MOLT-4 and with SN12C was > 100 µM (inactive) in each case. Moreover, the GI50 with HOP-92, in the experiment on SR, with DLD-1, with RPMI-8226 and in the experiment on K562 was > 100 µM (inactive) each time.
As for `CCOC(=O)NC(=O)c1cn(CCSCCOC(=O)NCCCCCCNC(=O)OCCSCCn2cc(C(=O)NC(=O)OCC)c(=O)n(C)c2=O)c(=O)n(C)c1=O`, the GI50 in the experiment with HT-29 was 52.5 µM (inactive); in the experiment with HL-60 it was 15.3 µM (inactive); in the experiment with A549, 45.2 µM (inactive); in the experiment on OVCAR-5 it was > 100 µM (inactive); in the experiment with HCT-15, 86.3 µM; in the experiment with SNB-75 it was > 100 µM (inactive). Also, the GI50 in the experiment on TK-10 was 44.3 µM (inactive); in the experiment with SK-MEL-28, 41.8 µM (inactive); in the experiment with RXF 393, 27.6 µM (inactive); in the experiment on MOLT-4, 5.68 µM (inactive); in the experiment with SN12C it was 21.8 µM (inactive); with HOP-92, 20.9 µM (inactive). Besides, the GI50 in the experiment with SR was 13.4 µM (inactive); in the experiment with DLD-1, 72.8 µM (inactive); in the experiment with RPMI-8226 it was 20.5 µM (inactive).
`COC1/C(=C\c2ccccc2I)c2ccccc2N1C(C)=O` (stereo not drawn): the GI50 was 15.6 µM (inactive) with HT-29; 3.46 µM (inactive) with HL-60; 16.2 µM (inactive) in the experiment on OVCAR-4; 16 µM (inactive) in the experiment on A549; 14.2 µM in the experiment with HCT-15; 14.3 µM (inactive) in the experiment on SNB-75. In addition, the GI50 is 17.3 µM (inactive) with SK-MEL-28; 5.69 µM (inactive) in the experiment with RXF 393; 14.1 µM (inactive) in the experiment with MOLT-4; 15.2 µM (inactive) in the experiment with SN12C; 2.2 µM (inactive) with HOP-92; 14.4 µM (inactive) in the experiment on SR. Moreover, the GI50 in the experiment on DLD-1 was 15.5 µM (inactive); in the experiment on RPMI-8226, 8.87 µM (inactive); in the experiment on K562, 15.6 µM (inactive).
`Cc1cc(O)c2c(c1)C(=O)c1cc(O)cc(O)c1C2=O` [EMODIN]: the GI50 in the experiment with HT-29 was 33.7 µM (inactive); in the experiment on HL-60, 26.9 µM (inactive); in the experiment on OVCAR-4, 30.6 µM (inactive); in the experiment on A549 it was 23 µM (inactive); in the experiment with OVCAR-5, 39.4 µM (inactive); in the experiment on HCT-15, 22.9 µM. Also, the GI50 with SNB-75 was 32.6 µM (inactive); in the experiment on TK-10 it was 39.4 µM (inactive); in the experiment with SK-MEL-28 it was 25.4 µM (inactive); in the experiment on RXF 393 it was 41 µM (inactive); in the experiment with MOLT-4, 31 µM (inactive); in the experiment on SN12C, 20.5 µM (inactive). For the same compound, the GI50 is 14.4 µM (inactive) in the experiment with HOP-92, 23.4 µM (inactive) in the experiment with SR, 23.3 µM (inactive) in the experiment on DLD-1 and 17.7 µM (inactive) in the experiment with RPMI-8226.
Take `O=c1oc2c(ccc3occc32)c(N2CCCCC2)c1-c1ccccc1`: the GI50 in the experiment with HT-29 was 61.2 µM (inactive); in the experiment with HL-60, 24.2 µM (inactive); with OVCAR-4, > 93.3 µM (inactive); in the experiment with A549, > 93.3 µM (inactive); in the experiment with OVCAR-5 it was > 100 µM (inactive); with HCT-15 it was above 80 µM. Besides, the GI50 in the experiment with SNB-75 is > 80.7 µM (inactive); in the experiment with SK-MEL-28 it was > 100 µM (inactive); in the experiment with RXF 393, > 64.3 µM (inactive); with SN12C, > 100 µM (inactive); in the experiment with HOP-92, > 73.8 µM (inactive); in the experiment on DLD-1, > 100 µM (inactive). Moreover, in the experiment with NCI/ADR-RES, the GI50 was > 100 µM (inactive).
For the compound `O=c1nc(-c2ccccc2)scc1-c1ccccc1`, the GI50 in the experiment with HT-29 is > 100 µM (inactive); with HL-60 it was > 100 µM (inactive); in the experiment on OVCAR-4, > 100 µM (inactive); in the experiment on A549, > 100 µM (inactive); with HCT-15 it was above 100 µM; in the experiment with SNB-75 it was > 100 µM (inactive). In addition, the GI50 was > 100 µM (inactive) in the experiment with TK-10; > 100 µM (inactive) in the experiment with SK-MEL-28; 74.5 µM (inactive) in the experiment with RXF 393; > 100 µM (inactive) in the experiment on MOLT-4; > 100 µM (inactive) with SN12C; 67.9 µM (inactive) with HOP-92. The GI50 in the experiment with SR, in the experiment on DLD-1, in the experiment with RPMI-8226 and in the experiment with K562 was > 100 µM (inactive) throughout.
`CC1OC=CC(=O)C1O` (stereo not drawn): the GI50 in the experiment with HT-29 was > 100 µM (inactive); with HL-60, > 100 µM (inactive); in the experiment on OVCAR-4, > 100 µM (inactive); in the experiment with A549, > 100 µM (inactive); in the experiment on OVCAR-5 it was > 100 µM (inactive); in the experiment on HCT-15, above 100 µM. Also, the GI50 in the experiment with SNB-75, in the experiment with TK-10, in the experiment on SK-MEL-28, in the experiment on RXF 393, in the experiment on MOLT-4 and in the experiment with SN12C was > 100 µM (inactive) throughout. Also, the GI50 in the experiment on HOP-92, in the experiment with SR, with DLD-1 and in the experiment with K562 was > 100 µM (inactive) throughout.
As for `CCOC1=CP(=O)(OCC)CC(C)=C1Cl` (stereo not drawn), the GI50 with HT-29 is > 100 µM (inactive); in the experiment on HL-60 it was > 100 µM (inactive); with A549 it was > 100 µM (inactive); in the experiment with OVCAR-5 it was > 100 µM (inactive); in the experiment with SNB-75, 30.4 µM (inactive); with TK-10, > 100 µM (inactive). Moreover, the GI50 in the experiment with SK-MEL-28 is > 100 µM (inactive); in the experiment with RXF 393 it was > 10 µM (inactive); in the experiment with MOLT-4, > 100 µM (inactive); in the experiment with SN12C, > 100 µM (inactive); with HOP-92, > 100 µM (inactive); in the experiment with SR, > 100 µM (inactive). The GI50 in the experiment with DLD-1, in the experiment on RPMI-8226 and in the experiment on K562 was > 100 µM (inactive) in each case.
In the case of `CCCCCCc1cn([C@H]2C[C@H](O)[C@@H](CO)O2)c(=O)[nH]c1=O`, the GI50 with HT-29 is > 100 µM (inactive); in the experiment on HL-60, > 100 µM (inactive); in the experiment with OVCAR-4, > 100 µM (inactive); with A549 it was > 100 µM (inactive); in the experiment on OVCAR-5 it was > 100 µM (inactive); in the experiment on HCT-15 it was above 100 µM. For the same compound, the GI50 in the experiment on SNB-75, with SK-MEL-28, in the experiment on RXF 393, in the experiment with SN12C, in the experiment with HOP-92 and with DLD-1 was > 100 µM (inactive) each time. Also, the GI50 in the experiment on RPMI-8226, with NCI/ADR-RES and in the experiment with K562 was > 100 µM (inactive) throughout.
